Test results published in paper PMC6476959, “Novel 3,4-Dihydroisocoumarins Inhibit Human P-gp and BCRP in Multidrug Resistant Tumors and Demonstrate Substrate Inhibition of Yeast Pdr5” (Frontiers in Pharmacology, 2019).
Several values for one entry are separate records, joined by “and”; a condition that tells them apart may be missing. Equal entries are not always repeated. Entries after “also recorded” stand apart in the source; their conditions may differ.

Assays:
A549 cells = assay: CellTiter-Glo cell viability assay (cytotoxicity), A549; assay type: cell-based, human; settings: Homo sapiens, A549; 48 h, mean ± SEM
Protocol: (§1) The human lung adenocarcinoma cell line A549 was cultured in DMEM medium supplemented with 10% fetal bovine serum (FBS), 100 U/mL penicillin and 100 μg/mL streptomycin. P-gp-expressing human colon adenocarcinoma cells HCT-15 were cultured in RPMI 1640 medium supplemented with 10% FBS, 100 U/mL penicillin and 100 μg/mL streptomycin. BCRP-expressing MCF-7/MX human breast adenocarcinoma cells were cultured in DMEM medium supplemented with 10% FBS, 100 U/mL penicillin and 100 μg/mL streptomycin. MRP1-expressing H69AR human small cell lung cancer cells were cultured in RPMI 1640 medium (ATCC modification) supplemented with 20% FBS, 100 U/mL penicillin and 100 μg/mL streptomycin. All cancer cell lines employed have been systematically characterized regarding their respective ABC transporter expression profile ([Sachs et al., 2019]).
(§2) Cytotoxic activity of test compounds was analyzed after 48 h using the CellTiter-Glo Luminescent Cell Viability Assay published previously ([Weber et al., 2017]) in 384-well plates with the following cell densities: A549, MCF-7/MX: 2 × 10^3 cells/well; HCT-15: 3 × 10^3 cells/well; H69AR: 5 × 10^3 cells/well. Pipetting was conducted with the CyBi-Well 96-channel simultaneous pipettor (Analytik Jena AG, Jena, Germany). For generation of dose-response curves and calculation of IC50 values, the four-parameter logistic model was applied.

HCT-15 cells = assay: CellTiter-Glo cell viability assay (cytotoxicity), HCT-15; assay type: cell-based; settings: Homo sapiens, 48 h, P-gp expressing, mean ± SEM
Protocol: as §1, §2

MCF-7/MX cells = assay: CellTiter-Glo cell viability assay (cytotoxicity), MCF-7/MX; assay type: cell-based; settings: Homo sapiens, MCF7/MX; 48 h, BCRP-expressing, mean ± SEM
Protocol: as §1, §2

H69AR cells = assay: CellTiter-Glo cell viability assay (cytotoxicity), H69AR; assay type: cell-based; settings: Homo sapiens, 48 h, MRP1-expressing, mean ± SEM
Protocol: as §1, §2

P-gp = target: T1, P-gp (Homo sapiens, UniProt P08183); assay: P-gp transport assay (calcein-AM) in HCT-15 cells; assay type: cell-based
T1 construct: endogenous in cells; host or cells: HCT-15 human colon adenocarcinoma cells
Protocol: The transport of calcein-AM by P-gp and its modulation by test compounds was analyzed in the P-gp-expressing HCT-15 cell line. 5 × 10^4 cells were seeded in black 96-well plates and incubated at 37°C and 5% CO2 for 24 h. The culture medium was removed and replaced by Hank’s balanced salt solution supplemented with 10 mM HEPES. Test compounds, 2.5 μM PSC833 (positive control) or 0.5% DMSO (negative control) were added in triplicates and incubated for 30 min at 37°C and 5% CO2. The substrate calcein-AM was added (final concentration 0.5 μM) and the fluorescence (excitation 485 nm, emission 520 nm) was measured over 3 h with the Infinite m1000 pro microplate reader (Tecan Group AG, Männedorf, Switzerland) at 37°C. The transport activity of P-gp was analyzed by determining the slope of the linear part of the fluorescence-time curve (0–30 min) using linear regression. Normalization of the data to PSC833 (100% inhibition) and DMSO (0% inhibition) was performed.

BCRP = target: T2, BCRP (Homo sapiens, UniProt Q9UNQ0); assay: BCRP transport assay (Hoechst 33342) in MCF-7/MX cells; assay type: cell-based
T2 construct: endogenous in cells; host or cells: MCF-7/MX human breast adenocarcinoma cells (mitoxantrone-selected)
T2 sequence (Q9UNQ0 1-655): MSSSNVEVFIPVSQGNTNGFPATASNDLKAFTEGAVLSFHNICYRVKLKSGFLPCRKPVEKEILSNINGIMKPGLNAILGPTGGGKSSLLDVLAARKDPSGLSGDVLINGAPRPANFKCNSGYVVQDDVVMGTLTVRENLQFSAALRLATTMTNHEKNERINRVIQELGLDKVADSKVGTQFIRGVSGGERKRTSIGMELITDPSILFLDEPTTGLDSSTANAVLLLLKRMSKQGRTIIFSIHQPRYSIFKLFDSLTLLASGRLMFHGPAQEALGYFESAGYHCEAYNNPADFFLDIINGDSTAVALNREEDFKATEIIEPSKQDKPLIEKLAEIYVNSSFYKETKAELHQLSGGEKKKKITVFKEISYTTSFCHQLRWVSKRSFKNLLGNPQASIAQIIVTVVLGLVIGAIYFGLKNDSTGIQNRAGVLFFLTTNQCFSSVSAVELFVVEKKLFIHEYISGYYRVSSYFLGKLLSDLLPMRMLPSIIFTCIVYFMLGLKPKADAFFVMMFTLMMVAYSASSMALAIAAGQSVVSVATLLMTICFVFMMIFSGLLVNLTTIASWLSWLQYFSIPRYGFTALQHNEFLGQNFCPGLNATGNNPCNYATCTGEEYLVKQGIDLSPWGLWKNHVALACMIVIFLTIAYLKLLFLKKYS
Protocol: Breast cancer resistance protein transport activity was determined in the BCRP-expressing MCF-7/MX cell line. Hoechst 33342 was applied as transporter substrate and 1 μM Ko143 as positive control or 0.5% DMSO as negative control and the assay was performed according to the P-gp assay. Fluorescence was measured at an excitation wavelength of 355 nm and emission wavelength of 460 nm. The transport activity of BCRP was analyzed by determining the plateau of the fluorescence-time curve by using non-linear regression (one-phase exponential fit). Normalization of the data to Ko143 (100% inhibition) and DMSO (0% inhibition) was performed.

Pdr5 [1] = target: T3, Pdr5 (Saccharomyces cerevisiae, UniProt P33302); assay: Pdr5 transport assay (R6G) in plasma membrane preparations; assay type: biochemical; design: R6G transport activity of Pdr5 WT inhibited to (initial screen): dose or concentration left out as unconfirmed; settings: for R6G transport activity of Pdr5 WT inhibited to (initial screen): relative to Pdr5 WT without compound
T3 construct: effect on (A) the transport activity of Pdr5 WT and (B) their effect on the ATPase activity; made in house; host or cells: S. cerevisiae YRE1001 (pdr1-3 background), isolated plasma membranes
Protocol: (§3) Saccharomyces cerevisiae cells expressing Pdr5 WT or the E1036Q (EQ) mutant were cultured to an OD600 of 1.5 in YPD-media at 25°C. The nitrogen source was replenished by addition of a 10th volume of 5x YP (50 g/l yeast extract, 100 g/l peptone). The cells were grown to an OD of 3.5 and harvested (5000 ×g at 4°C for 15 min). The isolation of Pdr5 containing PMs was performed as described ([Kolaczkowski et al., 1996]; [Ernst et al., 2008]).
Active transport of R6G was measured according to the protocol developed by [Kolaczkowski et al. (1996)], using a Tecan Infinite 200 pro reader (Tecan Group AG, Männedorf, Switzerland). 6 μg of the isolated PM containing Pdr5 were resuspended in 200 μl of the transport buffer (50 mM HEPES, pH 7.0, 5 mM MgCl2, 10 mM NaN3, and 150 nM R6G) and incubated in a black 96-well plate at 30°C. 5 μl of the test compound were added at the indicated concentrations. Active transport was initiated by the addition of 10 μl 200 mM ATP and fluorescence intensity was recorded in 15 s-intervals for 20 min (excitation wavelength at 524 nm, emission wavelength at 558 nm, number of flashes 30, integration time 2000 μs). IC50 determination was performed with a serial dilution of the test compounds.

Pdr5 [2] = target: T3, Pdr5; assay: Pdr5 ATPase assay (oligomycin-sensitive) in plasma membrane preparations; assay type: biochemical; settings: highest concentrations (10 mM), in comparison to Pdr5 WT in the absence of any compound
Protocol: as §3
Oligomycin (OM)-sensitive ATPase activity was measured from 0.8 μg PM containing Pdr5 incubated with 2 mM ATP, 5 mM MgCl2 in 270 mM TRIS-glycine buffer (pH 9.5) and 2.5 μl of the test compounds or DMSO as a control in a total volume of 100 μl. To reduce the background activities, 0.2 mM ammonium molybdate, 10 mM NaN3 and 50 mM KNO3, respectively, were added ([Dufour et al., 1988]; [Goffeau and Dufour, 1988]). In a second assay, OM (20 μg/ml) was added to an otherwise identical setup. After incubation at 30°C for 20 min, the reaction was stopped by adding 25 μl of the reaction to 175 μl 40 mM H2SO4. The amount of released inorganic phosphate was determined by a colometric assay in 96-well plates ([Goffeau and Dufour, 1988]; [Decottignies et al., 1994]; [Wada et al., 2002]). The difference of both assays ( ± OM) corresponds to the specific ATPase activity of Pdr5 ([Ernst et al., 2008]).

[3] = system: P-gp expressing HCT-15 cells; assay: Sensitization of HCT-15 cells to doxorubicin (co-treatment, cell viability); assay type: cell-based, human
Protocol: as §2
(§4) The ability of identified inhibitors of P-gp and BCRP to sensitize HCT-15 or MCF-7/MX cells to chemotherapy was analyzed by co-treatment with test compounds and doxorubicin or mitoxantrone, respectively. Cells were incubated with a serial dilution of the chemotherapeutic drug alone or in combination with fixed concentrations of the test compounds or positive controls (2.5 μM PSC833 and 1 μM Ko143, respectively). Fold change of drug IC50 was calculated with the formula IC50 (drug alone)/IC50 (drug with modulator).

[4] = system: BCRP-expressing MCF-7/MX cells; assay: Sensitization of MCF-7/MX cells to mitoxantrone (co-treatment, cell viability); assay type: cell-based, human
Protocol: as §2, §4

[5] = human, P-gp-expressing HCT-15 cells, probe calcein-AM (0.5 μM), normalized to 2.5 μM PSC833 (100%) and DMSO (0%), read-out: Relative inhibition of P-gp

T1 sequence (P08183 whole entry): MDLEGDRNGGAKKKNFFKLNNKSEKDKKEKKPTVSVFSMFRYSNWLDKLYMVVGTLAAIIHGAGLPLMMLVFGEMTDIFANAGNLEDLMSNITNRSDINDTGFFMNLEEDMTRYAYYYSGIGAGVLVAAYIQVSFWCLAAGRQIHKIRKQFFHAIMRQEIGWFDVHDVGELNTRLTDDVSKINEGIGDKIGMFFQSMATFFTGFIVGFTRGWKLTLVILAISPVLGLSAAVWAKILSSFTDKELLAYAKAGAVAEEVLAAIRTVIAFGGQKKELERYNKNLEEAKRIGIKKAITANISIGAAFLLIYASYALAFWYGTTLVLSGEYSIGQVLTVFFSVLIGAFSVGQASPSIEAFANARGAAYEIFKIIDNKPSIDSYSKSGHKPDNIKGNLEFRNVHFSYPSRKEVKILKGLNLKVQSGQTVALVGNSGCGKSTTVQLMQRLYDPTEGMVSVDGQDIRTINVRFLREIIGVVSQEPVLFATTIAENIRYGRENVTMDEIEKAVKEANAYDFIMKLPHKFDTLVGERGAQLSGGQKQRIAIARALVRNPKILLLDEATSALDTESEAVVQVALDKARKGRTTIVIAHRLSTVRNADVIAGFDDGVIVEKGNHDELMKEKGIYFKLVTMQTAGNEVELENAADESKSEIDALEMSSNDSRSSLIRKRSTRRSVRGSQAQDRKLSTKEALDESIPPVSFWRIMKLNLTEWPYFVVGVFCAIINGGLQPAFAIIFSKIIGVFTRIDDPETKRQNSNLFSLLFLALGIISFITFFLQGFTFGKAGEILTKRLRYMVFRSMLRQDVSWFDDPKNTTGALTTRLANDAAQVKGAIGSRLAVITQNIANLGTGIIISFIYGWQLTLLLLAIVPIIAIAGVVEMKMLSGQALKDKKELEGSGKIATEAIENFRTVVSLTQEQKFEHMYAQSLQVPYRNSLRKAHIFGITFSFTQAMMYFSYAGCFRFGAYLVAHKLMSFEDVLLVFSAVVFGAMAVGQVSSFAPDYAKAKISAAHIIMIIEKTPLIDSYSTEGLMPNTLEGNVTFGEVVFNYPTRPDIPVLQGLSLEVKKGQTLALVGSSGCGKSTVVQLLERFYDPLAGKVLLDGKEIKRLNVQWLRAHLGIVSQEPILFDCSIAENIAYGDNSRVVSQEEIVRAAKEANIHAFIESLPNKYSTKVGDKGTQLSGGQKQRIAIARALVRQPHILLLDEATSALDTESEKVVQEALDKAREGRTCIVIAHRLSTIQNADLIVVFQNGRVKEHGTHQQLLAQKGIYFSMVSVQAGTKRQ
T3 sequence (P33302 whole entry): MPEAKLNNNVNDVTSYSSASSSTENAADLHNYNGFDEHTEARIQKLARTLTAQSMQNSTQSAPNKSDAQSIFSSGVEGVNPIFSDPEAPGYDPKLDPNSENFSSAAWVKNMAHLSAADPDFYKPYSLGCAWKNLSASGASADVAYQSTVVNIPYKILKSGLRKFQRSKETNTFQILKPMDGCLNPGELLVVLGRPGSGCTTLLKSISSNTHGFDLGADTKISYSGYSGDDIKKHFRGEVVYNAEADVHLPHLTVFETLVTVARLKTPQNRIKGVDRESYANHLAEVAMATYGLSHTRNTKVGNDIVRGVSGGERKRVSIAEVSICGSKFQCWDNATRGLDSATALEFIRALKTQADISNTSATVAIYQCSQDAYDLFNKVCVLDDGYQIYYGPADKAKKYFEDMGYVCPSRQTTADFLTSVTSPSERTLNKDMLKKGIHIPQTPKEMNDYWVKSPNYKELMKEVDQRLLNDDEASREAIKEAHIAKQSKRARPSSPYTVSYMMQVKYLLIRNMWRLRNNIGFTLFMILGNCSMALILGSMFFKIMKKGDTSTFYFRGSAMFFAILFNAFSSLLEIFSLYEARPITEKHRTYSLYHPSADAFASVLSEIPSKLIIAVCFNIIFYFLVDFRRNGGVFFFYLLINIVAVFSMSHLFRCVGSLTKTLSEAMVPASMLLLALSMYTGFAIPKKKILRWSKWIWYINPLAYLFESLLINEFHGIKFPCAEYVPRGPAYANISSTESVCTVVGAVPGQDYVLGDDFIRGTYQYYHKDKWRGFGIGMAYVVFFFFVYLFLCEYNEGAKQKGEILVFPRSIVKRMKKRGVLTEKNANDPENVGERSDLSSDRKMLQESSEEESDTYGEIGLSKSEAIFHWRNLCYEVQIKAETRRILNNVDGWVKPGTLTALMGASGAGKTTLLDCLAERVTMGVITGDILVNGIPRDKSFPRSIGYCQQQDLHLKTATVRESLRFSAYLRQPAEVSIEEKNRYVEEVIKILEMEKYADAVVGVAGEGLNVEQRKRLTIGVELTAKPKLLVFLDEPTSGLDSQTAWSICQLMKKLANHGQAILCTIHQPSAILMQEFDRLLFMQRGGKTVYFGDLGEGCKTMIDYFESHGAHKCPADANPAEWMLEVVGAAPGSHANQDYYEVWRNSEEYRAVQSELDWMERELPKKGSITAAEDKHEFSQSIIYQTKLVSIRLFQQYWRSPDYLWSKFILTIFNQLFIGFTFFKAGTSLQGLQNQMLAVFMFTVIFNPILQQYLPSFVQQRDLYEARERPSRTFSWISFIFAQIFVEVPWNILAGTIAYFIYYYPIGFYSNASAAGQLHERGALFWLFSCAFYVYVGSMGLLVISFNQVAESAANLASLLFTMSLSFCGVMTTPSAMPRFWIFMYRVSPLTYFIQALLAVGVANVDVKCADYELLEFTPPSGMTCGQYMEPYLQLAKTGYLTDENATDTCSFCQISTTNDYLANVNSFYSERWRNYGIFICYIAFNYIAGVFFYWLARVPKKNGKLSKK

Compound | IC50 (A549 cells) [µM] | IC50 (HCT-15 cells) [µM] | IC50 (MCF-7/MX cells) [µM] | IC50 (H69AR cells) [µM] | Inhibition of BCRP (in words) (BCRP) | ATPase activity of Pdr5 WT inhibited to (initial screen) (Pdr5 [2]) | other results
COc1cc(O)c2c(c1)C[C@@H](C)OC2=O [6-Methoxymellein (3), 6-methoxymellein] | > 100 | > 100 | > 100 | > 100 | no inhibitory activity could be observed |  | Inhibition of P-gp (in words) (P-gp): did not differ significantly from those of derivative 14; R6G transport activity of Pdr5 WT inhibited to (initial screen) (Pdr5 [1]; listed as 3): no effect; R6G transport activity of Pdr5 WT inhibited to (initial screen) (Pdr5 [1]; listed as 6-methoxymellein (3)): did not interfere with Pdr5-mediated R6G transport; ATPase activity of Pdr5 WT inhibited to (initial screen) (Pdr5 [2]; listed as 3): nearly no effect; ATPase activity of Pdr5 WT inhibited to (initial screen) (Pdr5 [2]; listed as 6-methoxymellein (3)): no inhibitory effect
COc1cc(O)c2c(c1)C[C@H](CCO[Si](C)(C)C(C)(C)C)OC2=O [(R)-19] | 47.5 ± 3.2 | 57.1 ± 7.5 | 28.1 ± 0.7 | > 100 |  |  | inhibition at 20 μM (P-gp; [5]): > 20%; IC50 (Pdr5 [1]): 26 ± 3.5 µM; R6G transport activity of Pdr5 WT inhibited to (initial screen) (Pdr5 [1]): inhibit the transport of R6G completely; also recorded: inhibit the transport activity of Pdr5 WT completely
COc1cc(O)c2c(c1)C[C@H](CCO)OC2=O [(R)-19a] | > 100 | > 100 | > 100 | > 100 | completely abolished inhibitory ability | nearly no effect; also recorded: no inhibition of the ATPase activity was observed | 
COc1cc(O)c2c(c1)C[C@@H](CCO[Si](C)(C)C(C)(C)C)OC2=O [(S)-19] | 42 ± 3.9 | > 100 | 33.5 ± 7.5 | 86.8 ± 9.2 |  |  | inhibition at 10 μM (P-gp; human, P-gp-expressing HCT-15 cells, probe calcein-AM (0.5 μM), 10 μM, normalized to 2.5 μM PSC833 (100%) and DMSO (0%), read-out: Relative inhibition of P-gp): 37.1 ± 2.9%; inhibition at 20 μM (P-gp; [5]): > 20%; IC50 (Pdr5 [1]): 5.3 ± 0.6 µM; R6G transport activity of Pdr5 WT inhibited to (initial screen) (Pdr5 [1]): inhibit the transport of R6G completely; also recorded: inhibit the transport activity of Pdr5 WT completely
COc1cc(O)c2c(c1)C[C@@H](CCO)OC2=O [(S)-19a] | > 100 | > 100 | 89.8 ± 4.9 | > 100 | completely abolished inhibitory ability | nearly no effect; also recorded: no inhibition of the ATPase activity was observed | 
COc1cc2c(c(OC)c1)C(=O)OCC2 [Compound 14a] | > 100 | > 100 | > 100 | > 100 | did not inhibit BCRP |  | Relative inhibition of P-gp, span over the tested concentrations (P-gp; different concentrations, normalized to PSC833): up to 10%
COc1cc(O)c2c(=O)oc3ccccc3c2c1 [Compound 21] | > 50 | > 50 | > 50 | > 50 |  | 50% and 54% | Relative inhibition rate of P-gp (P-gp; highest concentration used): 20.0 ± 1.2%
COc1cccc2c1C(=O)c1c(O)c3c(c(O)c1C2=O)C[C@@](O)(C(=O)CO)C[C@@H]3O[C@H]1C[C@H](N)[C@H](O)[C@H](C)O1 [Doxorubicin, doxorubicin, reference compound] |  |  |  |  |  |  | IC50 ([3]; Homo sapiens, HCT-15, doxorubicin alone, 48 h): 8.5 ± 0.7 µM; Fold change of doxorubicin IC50 ([3]; doxorubicin alone (reference)): 1.00
O=C1c2c(O)ccc(O)c2C(=O)c2c(NCCNCCO)ccc(NCCNCCO)c21 [Mitoxantrone, mitoxantrone, reference compound] |  |  |  |  |  |  | IC50 ([4]; Homo sapiens, MCF7/MX, mitoxantrone alone, 48 h): 19.6 ± 2.4 µM; Fold change of mitoxantrone IC50 ([4]; mitoxantrone alone (reference)): 1.00
